Earlier results on one compound are cited in patent publication US9757705B2, “Method for production of concentrates of preferably water-soluble active agents” (KWIZDA AGRO GMBH, priority 2013, dated 2017).

For this data set the following is noted: at 20° C.; according to literature.

Consider `C/C(=N\C#N)N(C)Cc1ccc(Cl)nc1` [Acetamiprid], for which the solubility is reported as 400 mg/100 ml.
